Measured values published in the supplement of paper PMC10307832.

Key:
[1] = compound: C[C@]1(O)C[C@@H](c2nc(-c3ccc4ccc(-c5ccccc5)nc4c3)c3c(N)nccn32)C1 [Linsitinib]; test: relative viability (nuclei count vs DMSO), 5 days (fraction); higher = more cells survive
Method in brief: (§1)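 Viability was defined as treated-well nuclei divided by vehicle-well nuclei, with the median taken over replicate plates. Cells from lung cancer lines sat overnight at 37 °C in 1536-well plates, received five √10-spaced library-drug doses by pinning on vehicle-anchored plates, and grew 5 days without medium change before one-step fixation, permeabilisation and Hoechst staining, 4× imaging and MetaXpress nuclear counts. Only plates with control CV under 25% and at least one doubling were kept.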

[2] = compound: Cc1ccc(C(=O)N(CCCN)[C@@H](c2nc3cc(Cl)ccc3c(=O)n2Cc2ccccc2)C(C)C)cc1 [Ispinesib]; test: as above
Method in brief: as §1

A549
relative viability ([1]; 0.01 µM): 0.929
relative viability ([1]; 0.03162 µM): 0.978
relative viability ([1]; 0.1 µM): 0.963
relative viability ([1]; 0.3162 µM): 0.729
relative viability ([1]; 1 µM): 0.615
relative viability ([1]; 1 µM, anchor plate): 0.601
relative viability ([2]; 0.001 µM): 1.1
relative viability ([2]; 0.003162 µM): 0.983
relative viability ([2]; 0.01 µM): 1.31
relative viability ([2]; 0.03162 µM): 0.568
relative viability ([2]; 0.1 µM): 0.109

EMC-BAC-2
relative viability ([1]; 0.01 µM): 0.922
relative viability ([1]; 0.03162 µM): 0.984
relative viability ([1]; 0.1 µM): 0.931
relative viability ([1]; 0.3162 µM): 0.725
relative viability ([1]; 1 µM): 0.602
relative viability ([1]; 1 µM, anchor plate): 0.833
relative viability ([2]; 0.001 µM): 1.04
relative viability ([2]; 0.003162 µM): 1.26
relative viability ([2]; 0.01 µM): 1.11
relative viability ([2]; 0.03162 µM): 0.395
relative viability ([2]; 0.1 µM): 0.421

NCI-H1563
relative viability ([1]; 0.01 µM): 1.03
relative viability ([1]; 0.03162 µM): 0.924
relative viability ([1]; 0.1 µM): 1.09
relative viability ([1]; 0.3162 µM): 1.3
relative viability ([1]; 1 µM): 0.93
relative viability ([1]; 1 µM, anchor plate): 1.22
relative viability ([2]; 0.001 µM): 1.13
relative viability ([2]; 0.003162 µM): 0.97
relative viability ([2]; 0.01 µM): 0.938
relative viability ([2]; 0.03162 µM): 0.927
relative viability ([2]; 0.1 µM): 0.772

NCI-H1703
relative viability ([1]; 0.01 µM): 0.881
relative viability ([1]; 0.1 µM): 0.873
relative viability ([1]; 0.3162 µM): 0.577
relative viability ([1]; 1 µM): 0.492
relative viability ([1]; 1 µM, anchor plate): 0.9
relative viability ([2]; 0.001 µM): 1.28
relative viability ([2]; 0.003162 µM): 0.88
relative viability ([2]; 0.01 µM): 0.6
relative viability ([2]; 0.03162 µM): 0.163
relative viability ([2]; 0.1 µM): 0.137

NCI-H2087
relative viability ([1]; 0.01 µM): 1.07
relative viability ([1]; 0.03162 µM): 1.04
relative viability ([1]; 0.1 µM): 1.13
relative viability ([1]; 0.3162 µM): 0.615
relative viability ([1]; 1 µM): 0.683
relative viability ([1]; 1 µM, anchor plate): 0.908
relative viability ([2]; 0.001 µM): 1.01
relative viability ([2]; 0.003162 µM): 1.03
relative viability ([2]; 0.01 µM): 1.23
relative viability ([2]; 0.03162 µM): 0.335
relative viability ([2]; 0.1 µM): 0.137

NCI-H1299
relative viability ([1]; 0.01 µM): 1.01
relative viability ([1]; 0.03162 µM): 0.999
relative viability ([1]; 0.1 µM): 1.02
relative viability ([1]; 0.3162 µM): 0.918
relative viability ([1]; 1 µM): 1.02
relative viability ([1]; 1 µM, anchor plate): 0.977
relative viability ([2]; 0.001 µM): 1.05
relative viability ([2]; 0.003162 µM): 1.05
relative viability ([2]; 0.01 µM): 1.07
relative viability ([2]; 0.03162 µM): 1.05
relative viability ([2]; 0.1 µM): 0.461

NCI-H441
relative viability ([1]; 0.01 µM): 0.951
relative viability ([1]; 0.03162 µM): 0.981
relative viability ([1]; 0.1 µM): 0.986
relative viability ([1]; 0.3162 µM): 0.497
relative viability ([1]; 1 µM): 0.636
relative viability ([1]; 1 µM, anchor plate): 0.519
relative viability ([2]; 0.001 µM): 1.06
relative viability ([2]; 0.003162 µM): 1.1
relative viability ([2]; 0.01 µM): 0.765
relative viability ([2]; 0.03162 µM): 0.272
relative viability ([2]; 0.1 µM): 0.297

LXF-289
relative viability ([1]; 0.01 µM): 1.04
relative viability ([1]; 0.03162 µM): 0.974
relative viability ([1]; 0.1 µM): 1.04
relative viability ([1]; 0.3162 µM): 0.768
relative viability ([1]; 1 µM): 0.977
relative viability ([1]; 1 µM, anchor plate): 0.976
relative viability ([2]; 0.001 µM): 0.98
relative viability ([2]; 0.003162 µM): 1.02
relative viability ([2]; 0.01 µM): 1.13
relative viability ([2]; 0.03162 µM): 0.773
relative viability ([2]; 0.1 µM): 0.178

NCI-H661
relative viability ([1]; 0.01 µM): 0.926
relative viability ([1]; 0.03162 µM): 1.09
relative viability ([1]; 0.1 µM): 1.01
relative viability ([1]; 0.3162 µM): 0.853
relative viability ([1]; 1 µM): 1.04
relative viability ([1]; 1 µM, anchor plate): 0.63
relative viability ([2]; 0.001 µM): 0.968
relative viability ([2]; 0.003162 µM): 0.983
relative viability ([2]; 0.01 µM): 0.993
relative viability ([2]; 0.03162 µM): 0.742
relative viability ([2]; 0.1 µM): 0.289

PC-3 [JPC-3]
relative viability ([1]; 0.01 µM): 1.04
relative viability ([1]; 0.03162 µM): 1.06
relative viability ([1]; 0.1 µM): 1.1
relative viability ([1]; 0.3162 µM): 0.947
relative viability ([1]; 1 µM): 0.916
relative viability ([1]; 1 µM, anchor plate): 0.949
relative viability ([2]; 0.001 µM): 1.06
relative viability ([2]; 0.003162 µM): 1.15
relative viability ([2]; 0.01 µM): 1.09
relative viability ([2]; 0.03162 µM): 0.909
relative viability ([2]; 0.1 µM): 0.533

HCC-366
relative viability ([1]; 0.01 µM): 1
relative viability ([1]; 0.03162 µM): 0.989
relative viability ([1]; 0.1 µM): 0.925
relative viability ([1]; 0.3162 µM): 0.917
relative viability ([1]; 1 µM): 0.938
relative viability ([1]; 1 µM, anchor plate): 0.658
relative viability ([2]; 0.001 µM): 1.03
relative viability ([2]; 0.003162 µM): 1.03
relative viability ([2]; 0.01 µM): 1.08
relative viability ([2]; 0.03162 µM): 0.935
relative viability ([2]; 0.1 µM): 0.0315

NCI-H2342
relative viability ([1]; 0.01 µM): 0.889
relative viability ([1]; 0.03162 µM): 1.07
relative viability ([1]; 0.1 µM): 0.86
relative viability ([1]; 0.3162 µM): 1.01
relative viability ([1]; 1 µM): 0.768
relative viability ([2]; 0.001 µM): 0.986
relative viability ([2]; 0.003162 µM): 0.942
relative viability ([2]; 0.01 µM): 1.04
relative viability ([2]; 0.03162 µM): 0.935
relative viability ([2]; 0.1 µM): 0.638

NCI-H1651
relative viability ([1]; 0.01 µM): 0.969
relative viability ([1]; 0.03162 µM): 1
relative viability ([1]; 0.1 µM): 0.942
relative viability ([1]; 0.3162 µM): 0.826
relative viability ([1]; 1 µM): 0.939
relative viability ([1]; 1 µM, anchor plate): 1.01
relative viability ([2]; 0.001 µM): 1.06
relative viability ([2]; 0.003162 µM): 1.05
relative viability ([2]; 0.01 µM): 1.06
relative viability ([2]; 0.03162 µM): 0.927
relative viability ([2]; 0.1 µM): 0.549

SW 900
relative viability ([1]; 0.01 µM): 0.885
relative viability ([1]; 0.03162 µM): 0.986
relative viability ([1]; 0.1 µM): 0.862
relative viability ([1]; 0.3162 µM): 0.538
relative viability ([1]; 1 µM): 0.477
relative viability ([2]; 0.001 µM): 0.858
relative viability ([2]; 0.003162 µM): 0.995
relative viability ([2]; 0.01 µM): 1.05
relative viability ([2]; 0.03162 µM): 0.683
relative viability ([2]; 0.1 µM): 0.283

NCI-H1355
relative viability ([1]; 0.01 µM): 1.02
relative viability ([1]; 0.03162 µM): 0.984
relative viability ([1]; 0.1 µM): 0.947
relative viability ([1]; 0.3162 µM): 0.787
relative viability ([1]; 1 µM): 0.615
relative viability ([1]; 1 µM, anchor plate): 0.848
relative viability ([2]; 0.001 µM): 1.08
relative viability ([2]; 0.003162 µM): 1.06
relative viability ([2]; 0.01 µM): 1.09
relative viability ([2]; 0.03162 µM): 0.728
relative viability ([2]; 0.1 µM): 0.274

LC-2-ad
relative viability ([1]; 0.01 µM): 0.941
relative viability ([1]; 0.03162 µM): 0.896
relative viability ([1]; 0.1 µM): 0.967
relative viability ([1]; 0.3162 µM): 0.735
relative viability ([1]; 1 µM): 0.756
relative viability ([1]; 1 µM, anchor plate): 0.86
relative viability ([2]; 0.001 µM): 1.04
relative viability ([2]; 0.003162 µM): 1.1
relative viability ([2]; 0.01 µM): 1.07
relative viability ([2]; 0.03162 µM): 0.536
relative viability ([2]; 0.1 µM): 0.175
